Tests used:
human volunteers = assay: Phase I clinical studies, peroral administration; type: in vivo
[1] = Cardiovascular side effects on sublingual or buccal administration; type: in vivo
[2] = Absorption from aqueous compositions kept under the tongue or in the mouth; type: in vivo; settings: aqueous compositions kept under the tongue or in the mouth of a patient
histamine = settings: cited from earlier work
serotonin = settings: cited from earlier work

## CN1C[C@@H]2c3ccccc3Oc3ccc(Cl)cc3[C@H]2C1 (relative stereo) [trans-5-chloro-2-methyl-2,3,3a,12b-tetrahydro-1H-dibenz[2,3:6,7]oxepino[4,5-c]pyrrole]
Human volunteers
  Cardiotoxic effects: serious cardiotoxic effects, e.g. postural hypotension and/or impairment of baroreceptor functioning, occurred
[1]
  Cardiovascular side effects: substantially less cardiovascular side effects
[2]
  Absorption: rapidly absorbed
histamine
  Antihistamine activity: antihistamine and antiserotonin activities
serotonin
  Antiserotonin activity: antihistamine and antiserotonin activities

From US5763476A, “Sublingual or buccal pharmaceutical composition” (priority 1994, dated 1998)
